Here are results for 5 compounds from patent US10385047B2, “Histone demethylase inhibitors” (CELGENE QUANTICEL RESEARCH, INC., priority 2014, dated 2019).

For one assay, the target named is T1, JMJD2C (Homo sapiens, UniProt Q9H3R0).
T1 construct: purchased BPS Bioscience 50105; host or cells: baculovirus expression system (insect cells)
T1 sequence (Q9H3R0 2-372): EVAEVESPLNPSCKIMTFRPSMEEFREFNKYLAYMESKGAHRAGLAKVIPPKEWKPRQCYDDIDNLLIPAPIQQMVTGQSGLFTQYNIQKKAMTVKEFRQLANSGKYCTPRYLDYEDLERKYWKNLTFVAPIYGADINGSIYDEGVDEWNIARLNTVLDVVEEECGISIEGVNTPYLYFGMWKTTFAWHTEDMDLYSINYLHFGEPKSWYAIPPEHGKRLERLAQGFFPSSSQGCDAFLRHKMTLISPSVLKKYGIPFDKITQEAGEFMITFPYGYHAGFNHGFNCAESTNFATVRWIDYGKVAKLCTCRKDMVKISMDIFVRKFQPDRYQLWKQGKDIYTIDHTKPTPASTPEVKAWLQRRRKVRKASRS
The assay is described as follows: In vitro enzyme inhibition assay for JMJD2C activity (TR-FRET). In kind it is biochemical. Here is the method: This assay determines the ability of a test compound to inhibit JMJD2C demethylase activity. Baculovirus expressed JMJD2C (GenBank Accession #BC143571, AA 2-372) was purchased from BPS Bioscience (Cat#50105).
The ability of test compounds to inhibit the activity of JMJD2C was determined in 384-well plate format under the following reaction conditions: 0.3 nM JMJD2C, 300 nM H3K9me3-biotin labeled peptide (Anaspec cat #64360), 2 μM alpha-ketoglutaric acid in assay buffer of 50 mM HEPES, pH7.3, 0.005% Brij35, 0.5 mM TCEP, 0.2 mg/ml BSA, 50 μM sodium L-ascorbate, and 2 μM ammonium iron(II) sulfate. Reaction product was determined quantitatively by TR-FRET after the addition of detection reagent Phycolink Streptavidin-allophycocyanin (Prozyme) and Europium-anti-di-methylated histone H3 lysine 9 (H3K9me2) antibody (PerkinElmer) in the presence of 5 mM EDTA in LANCE detection buffer (PerkinElmer) at a final concentration of 50 nM and 1 nM, respectively.
The assay reaction was initiated by the following: 2 μl of the mixture of 900 nM H3K9me3-biotin labeled peptide and 6 μM alpha-ketoglutaric acid with 2 μl of 11-point serial diluted inhibitor in 3% DMSO were added to each well of the plate, followed by the addition of 2 μl of 0.9 nM JMJD2C to initiate the reaction. The reaction mixture was incubated at room temperature for 30 minutes, and terminated by the addition of 6 μl of 5 mM EDTA in LANCE detection buffer containing 100 nM Phycolink Streptavidin-allophycocyanin and 2 nM Europium-anti-H3K9me2 antibody. Plates were read by EnVisionMultilabel Reader in TR-FRET mode (excitation at 320 nm, emission at 615 nm and 665 nm) after 1 hour incubation at room temperature. A ratio was calculated (665/615) for each well and fitted to determine inhibition constant (IC50).

In a further assay the target is T2, JMJD3 (Homo sapiens, UniProt O15054).
T2 construct: purchased BPS Bioscience 50115; host or cells: baculovirus expression system (insect cells)
T2 sequence (O15054 1043-1682 isoform O15054-1): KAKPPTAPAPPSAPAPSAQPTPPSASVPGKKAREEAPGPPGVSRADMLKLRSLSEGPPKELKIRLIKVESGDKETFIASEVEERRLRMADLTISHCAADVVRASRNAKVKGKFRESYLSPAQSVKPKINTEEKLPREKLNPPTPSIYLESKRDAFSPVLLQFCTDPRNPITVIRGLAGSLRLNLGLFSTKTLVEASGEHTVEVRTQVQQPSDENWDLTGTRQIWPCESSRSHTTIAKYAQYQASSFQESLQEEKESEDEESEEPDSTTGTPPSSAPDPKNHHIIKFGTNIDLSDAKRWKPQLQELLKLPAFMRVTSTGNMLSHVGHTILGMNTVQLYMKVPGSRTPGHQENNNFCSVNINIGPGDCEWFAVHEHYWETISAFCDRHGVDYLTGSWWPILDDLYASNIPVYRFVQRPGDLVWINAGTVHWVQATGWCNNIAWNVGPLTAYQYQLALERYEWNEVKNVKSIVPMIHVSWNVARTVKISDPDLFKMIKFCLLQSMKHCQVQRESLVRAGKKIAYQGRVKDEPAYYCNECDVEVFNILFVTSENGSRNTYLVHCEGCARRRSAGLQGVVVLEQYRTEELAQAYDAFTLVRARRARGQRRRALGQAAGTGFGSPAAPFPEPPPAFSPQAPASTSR
The assay is described as follows: In vitro enzyme inhibition assay for JMJD3 activity (TR-FRET). In kind it is biochemical. As to conditions: enzymatic assay conditions described herein. Here is the method: This assay determines the ability of a test compound to inhibit JMJD3 demethylase activity. Baculovirus expressed JMJD3 (GenBank Accession #NM-001080424, AA1043-end) was purchased from BPS Bioscience (Cat#50115).
The enzymatic assay of JMJD3 activity is based upon Time Resolved-Fluorescence Resonance Energy Transfer (TR-FRET) detection. […] Reaction product was determined quantitatively by TR-FRET after the addition of detection reagent Phycolink Streptavidin-allophycocyanin (Prozyme) and Europium-anti-di-methylated histone H3 lysine 27 (H3K27me2) antibody (PerkinElmer) in the presence of 5 mM EDTA in LANCE detection buffer (PerkinElmer) at a final concentration of 50 nM and 1 nM, respectively.
The reaction mixture was incubated at room temperature for 30 minutes, and terminated by the addition of 6 μL of 5 mM EDTA in LANCE detection buffer containing 100 nM Phycolink Streptavidin-allophycocyanin and 2 nM Europium-anti-H3K27me2 antibody. Plates were read by EnVisionMultilabel Reader in TR-FRET mode (excitation at 320 nm, emission at 615 nm and 665 nm) after 1 hour incubation at room temperature. A ratio from the readout of 665/615 was calculated for each well and fitted to determine inhibition constant (IC50).

Setting [1] is: enzymatic assay conditions described herein.
Where [2] appears, read: 0.3 nM JMJD2C, H3K9me3-biotin peptide, 2 μM alpha-ketoglutaric acid.

In the case of `O=C(O)c1ccncc1NC[C@H]1CCOc2cc(-c3ccccc3)ccc21` [Example 83 of U.S. Pat. No. 8,952,151, 3-({[(4S)-7-phenyl-3,4-dihydro-2H-1-benzopyran-4-yl]methyl}amino)pyridine-4-carboxylic acid], the results for the IC50 on JMJD2C (setting [1]) and on JMJD3 were 950 nM and 19 nM, respectively.
For the compound `O=C(O)c1ccncc1NC[C@@H]1CCOc2cc(-c3ccccc3)ccc21` [Example 84 of U.S. Pat. No. 8,952,151, 3-({[(4R)-7-phenyl-3,4-dihydro-2H-1-benzopyran-4-yl]methyl}amino)pyridine-4-carboxylic acid], the values for the IC50 on JMJD2C (setting [1]) and against JMJD3 were 150 nM and 2150 nM, respectively.
In turn, `C[C@@H](O)c1ccc(N(C)c2ccc3c(c2)CCC[C@H]3CNc2cnccc2C(=O)O)cc1` (single isomer, unassigned) [Example 168] showed a 50% inhibitory concentration (IC50) against JMJD2C (setting [2]) of 100 to 1000 nM.
On the same count and under the same terms, the same measure for `O=C(O)c1ccncc1NC[C@@H]1CCOc2cc(C3CCCCC3)ccc21` [Example 35, 3-({[(4R)-7-cyclohexyl-3,4-dihydro-2H-1-benzopyran-4-yl]methyl}amino)pyridine-4-carboxylic Acid]: 100 to 1000 nM; for `C[C@H](O)c1ccc(N(C)c2ccc3c(c2)CCC[C@H]3CNc2cnccc2C(=O)O)cc1` (single isomer, unassigned) [Example 169]: 100 to 1000 nM.

One may read the IC50 as the concentration at which inhibition is half-maximal. Low values mean higher potency, high ones lower potency.
